Where a name gives a salt, the structure may show the parent alone.
Test system: SU-DHL-2
Experiment: Anti-proliferative effect in lymphoma cell line SU-DHL-2 (CellTiter-Glo)
Format: cell-based, human
Description: Objective: This experiment was conducted to detect the inhibitory effect of the compound of formula (I) on cell proliferation in the lymphoma cell line SU-DHL-2.
The tumor cell lines were cultured under the above culture conditions in an incubator at 37° C. and 5% CO2. The cells were passaged periodically, and those in the logarithmic growth phase were harvested for seeding.
• (1) The cells were stained with trypan blue, and the viable cells were counted. • (2) The cell concentration was adjusted to an appropriate concentration.
• (3) 50 μL of cell suspension was added to each well of the culture plate as shown in the figure above. • (4) The culture plate was incubated overnight in an incubator at 37° C., 5% CO2, and 100% relative humidity.
The drug was administered with an Echo655 instrument. A dosing volume of 50 nL was used, with a final DMSO concentration of 0.1%. The culture plate was centrifuged at 1000 rpm for 1 min and incubated at 37° C., 5% CO2, and 100% relative humidity for 4 days. […]

## O=C1CCC(c2noc3ccc4c(NC(=O)CN5CCN(C[C@H]6CC[C@H](n7cc(NC(=O)c8coc(-c9ccnc(NCC%10CC%10)c9)n8)c(C(F)F)n7)CC6)CC5)cccc4c23)C(=O)N1 (stereo partly shown) [Hydrochloride of Compound of Formula (I)]
  inhibitory effect on cell proliferation (conclusion): excellent inhibitory effect

— patent US20260265239A1, “CRYSTAL FORM OF 2,6-PIPERIDINEDIONE COMPOUND, AND PREPARATION METHOD THEREFOR AND USE THEREOF” (ZHANGZHOU PIEN TZE HUANG PHARMACEUTICAL CO., LTD., priority 2023, published 2026)
